What all share (assay): microbe, parasite or virus in culture
What all share (assay type): functional

Experiment [1] concerns Escherichia coli. The following applies: DSM 8579, time 48 hrs.
Experiment [2] has as its system Pectobacterium carotovorum. The settings on record: ATCC 15713, time 48 hrs.
The test system of experiment [3] is Acinetobacter baumannii. The following applies: ATCC 19606 = CIP 70.34 = JCM 6841, time 48 hrs.
Experiment [4] relates to Acinetobacter baumannii. The following applies: ATCC 19606 = CIP 70.34 = JCM 6841, time 48 hrs. This is another data set of the same source.
Experiment [5] has as its system Pectobacterium carotovorum. The settings on record: ATCC 15713, time 48 hrs. This is another data set of the same source.
In experiment [6] the test system is Pseudomonas aeruginosa. The settings on record: ATCC 50071, time 48 hrs.
The test system of experiment [7] is Acinetobacter baumannii. The following applies: ATCC 19606 = CIP 70.34 = JCM 6841, time 48 hrs. The source holds these as a separate data set.
In experiment [8] the test system is Staphylococcus aureus. The following applies: ATCC 25923, time 48 hrs.
The subject of experiment [9] is Staphylococcus aureus. The following applies: ATCC 25923, time 48 hrs. This is another data set of the same source.
Experiment [10] deals with Escherichia coli. The following applies: DSM 8579, time 48 hrs. The source holds these as a separate data set.
The subject of experiment [11] is Listeria monocytogenes. The settings on record: ATCC 7644, time 48 hrs.
Experiment [12] deals with Listeria monocytogenes. The following applies: ATCC 7644, time 48 hrs. This is another data set of the same source.
Experiment [13] deals with Listeria monocytogenes. The settings on record: ATCC 7644, time 48 hrs. The source holds these as a separate data set.
Experiment [14] has as its system Staphylococcus aureus. The settings on record: ATCC 25923, time 48 hrs. This is another data set of the same source.
Experiment [15] relates to Escherichia coli. The following applies: DSM 8579, time 48 hrs. The source holds these as a separate data set.
Experiment [16] has as its system Pseudomonas aeruginosa. The settings on record: ATCC 50071, time 48 hrs. The source holds these as a separate data set.
The test system of experiment [17] is Pectobacterium carotovorum. The settings on record: ATCC 15713, time 48 hrs. The source holds these as a separate data set.
Experiment [18] has as its system Acinetobacter baumannii. The settings on record: ATCC 19606 = CIP 70.34 = JCM 6841, time 48 hrs. This is another data set of the same source.
The subject of experiment [19] is Listeria monocytogenes. The settings on record: ATCC 7644, time 48 hrs. The source holds these as a separate data set.
Experiment [20] relates to Escherichia coli. The settings on record: DSM 8579, time 48 hrs. This is another data set of the same source.
Experiment [21] relates to Staphylococcus aureus. The following applies: ATCC 25923, time 48 hrs. The source holds these as a separate data set.
Experiment [22] relates to Pseudomonas aeruginosa. The following applies: ATCC 50071, time 48 hrs. The source holds these as a separate data set.
Experiment [23] concerns Pectobacterium carotovorum. The following applies: ATCC 15713, time 48 hrs. This is another data set of the same source.
For experiment [24], the system named is Pseudomonas aeruginosa. The settings on record: ATCC 50071, time 48 hrs. The source holds these as a separate data set.

Take `CC(C)c1cc2c(c(O)c1O)C[C@@]1(O)[C@@H](O)CCC(C)(C)[C@@H]1CC2`: the inhibition at 40 µg/mL in the experiment with Escherichia coli [1] and in the experiment with Escherichia coli [10] was 0% each time. Besides, the inhibition at 8 µg/mL worked out at 0% in experiment [2]; 51.7% with Acinetobacter baumannii [3]; 1.5% in [5]; 0% in the experiment with Pseudomonas aeruginosa [6]; 96.7% in the experiment on Acinetobacter baumannii [7]; 13.1% with Listeria monocytogenes [11]. Also, the inhibition at 8 µg/mL with Listeria monocytogenes [13] was found to be 0%; with Staphylococcus aureus [14], 79.7%; with Staphylococcus aureus [21] it was 78.2%; in the experiment on Pseudomonas aeruginosa [22] it was 65.7%. Also, the inhibition at 4 µg/mL in the experiment on Acinetobacter baumannii [4] was 48.6%; in the experiment with Staphylococcus aureus [8], 39.3%; in the experiment with Staphylococcus aureus [9], 75.8%; with Listeria monocytogenes [12], 9.6%; with Pseudomonas aeruginosa [16], 33.4%; in experiment [17], 0%. The inhibition at 4 µg/mL (with Acinetobacter baumannii [18]; in the experiment on Listeria monocytogenes [19]; in [23]; in the experiment on Pseudomonas aeruginosa [24]) was 0% throughout. Further, the inhibition at 80 µg/mL in the experiment with Escherichia coli [15] and with Escherichia coli [20] was 0% in each case.
For `CCCCCC` [HEXANE], the inhibition at 40 µg/mL is 87.6% with Escherichia coli [1] and 74.2% in the experiment with Escherichia coli [10]. Further, the inhibition at 8 µg/mL in [2] was found to be 97.8%; in the experiment on Acinetobacter baumannii [3], 48.5%; in [5], 49.4%; in the experiment with Pseudomonas aeruginosa [6], 97%; in the experiment on Acinetobacter baumannii [7], 34.7%; with Listeria monocytogenes [11], 77.3%. The inhibition at 8 µg/mL in the experiment on Listeria monocytogenes [13] was found to be 98.3%; in the experiment on Staphylococcus aureus [14], 93.7%; in the experiment with Staphylococcus aureus [21] it was 99.2%; in the experiment on Pseudomonas aeruginosa [22] it was 97.9%. In addition, the inhibition at 4 µg/mL turned out to be 35.7% with Acinetobacter baumannii [4]; 71.8% in the experiment with Staphylococcus aureus [8]; 98.6% in the experiment on Staphylococcus aureus [9]; 49.1% in the experiment on Listeria monocytogenes [12]; 94.8% with Pseudomonas aeruginosa [16]; 94.8% in [17]. Besides, the inhibition at 4 µg/mL in the experiment with Acinetobacter baumannii [18] was found to be 25.2%; in the experiment with Listeria monocytogenes [19] it was 92.4%; in experiment [23], 45.5%; in the experiment on Pseudomonas aeruginosa [24] it was 95.5%. Further, the results for the inhibition at 80 µg/mL with Escherichia coli [15] and in the experiment on Escherichia coli [20] were 78% and 95.8%, respectively.
Regarding `CO[C@@H]1c2cc(C(C)C)c(O)c(O)c2[C@@]23CCCC(C)(C)[C@@H]2[C@@H]1OC3=O`, the inhibition at 40 µg/mL in the experiment with Escherichia coli [1] and in the experiment on Escherichia coli [10] was 0% each time. Further, the inhibition at 8 µg/mL in experiment [2] stood at 67.7%; with Acinetobacter baumannii [3] it was 21%; in experiment [5], 5.7%; with Pseudomonas aeruginosa [6] it was 1.5%; with Acinetobacter baumannii [7], 38.8%; in the experiment with Listeria monocytogenes [11], 29.7%. The inhibition at 8 µg/mL with Listeria monocytogenes [13] is 0%; in the experiment on Staphylococcus aureus [14] it was 91.8%; in the experiment with Staphylococcus aureus [21], 34.6%; in the experiment on Pseudomonas aeruginosa [22], 76.5%. Besides, the inhibition at 4 µg/mL with Acinetobacter baumannii [4] is 12.7%; in the experiment with Staphylococcus aureus [8], 34.4%; in the experiment on Staphylococcus aureus [9] it was 45.3%; with Listeria monocytogenes [12], 23.6%; in the experiment on Pseudomonas aeruginosa [16], 55.8%; in experiment [17], 35.5%. Also, the inhibition at 4 µg/mL in the experiment with Acinetobacter baumannii [18] is 49.2%; in the experiment on Listeria monocytogenes [19], 0%; in experiment [23], 4.4%; in the experiment on Pseudomonas aeruginosa [24], 0%. Moreover, the inhibition at 80 µg/mL amounted to 6.1% in the experiment with Escherichia coli [15] and 0% in the experiment on Escherichia coli [20].
Consider `CC(C)c1cc2c(c(O)c1O)[C@@]13CCCC(C)(C)[C@@H]1[C@@H](O)[C@@H]2OC3=O` [ISOROSMANOL], for which the values for the inhibition at 40 µg/mL with Escherichia coli [1] and in the experiment with Escherichia coli [10] were 42.9% and 42.2%, respectively. Besides, the inhibition at 8 µg/mL turned out to be 66.9% in [2]; 43.9% in the experiment on Acinetobacter baumannii [3]; 62.8% in experiment [5]; 14.7% in the experiment on Pseudomonas aeruginosa [6]; 48.5% with Acinetobacter baumannii [7]; 25.2% in the experiment with Listeria monocytogenes [11]. Further, the inhibition at 8 µg/mL in the experiment with Listeria monocytogenes [13] is 63.9%; in the experiment on Staphylococcus aureus [14], 56.2%; in the experiment on Staphylococcus aureus [21] it was 17%; in the experiment with Pseudomonas aeruginosa [22], 80.5%. In addition, the inhibition at 4 µg/mL in the experiment on Acinetobacter baumannii [4] was determined as 13.2%; in the experiment on Staphylococcus aureus [8], 0%; with Staphylococcus aureus [9], 0%; in the experiment with Listeria monocytogenes [12] it was 16.2%; in the experiment with Pseudomonas aeruginosa [16], 75.4%; in [17], 66.3%. Further, the inhibition at 4 µg/mL in the experiment with Acinetobacter baumannii [18] was determined as 2.5%; in the experiment on Listeria monocytogenes [19] it was 25%; in experiment [23] it was 56.4%; in the experiment with Pseudomonas aeruginosa [24], 0%. The inhibition at 80 µg/mL is 52.1% in the experiment on Escherichia coli [15] and 53% with Escherichia coli [20].
As for `CC(C)c1cc2c(c(O)c1O)[C@@]13CCCC(C)(C)[C@@H]1[C@H](OC3=O)[C@H]2O` [ROSMANOL], the inhibition at 40 µg/mL in the experiment on Escherichia coli [1] and with Escherichia coli [10] was 0% each time. In addition, the inhibition at 8 µg/mL in [2] was 26.2%; in the experiment on Acinetobacter baumannii [3], 55.5%; in experiment [5], 46.6%; in the experiment on Pseudomonas aeruginosa [6], 9.5%; in the experiment with Acinetobacter baumannii [7] it was 20.3%; in the experiment with Listeria monocytogenes [11] it was 39.8%. Further, the inhibition at 8 µg/mL was 68.7% with Listeria monocytogenes [13], 79.9% in the experiment with Staphylococcus aureus [14], 70.6% in the experiment on Staphylococcus aureus [21] and 73.1% in the experiment on Pseudomonas aeruginosa [22]. Further, the inhibition at 4 µg/mL with Acinetobacter baumannii [4] amounted to 44.2%; in the experiment on Staphylococcus aureus [8], 45.1%; with Staphylococcus aureus [9], 63.8%; in the experiment with Listeria monocytogenes [12] it was 24.9%; with Pseudomonas aeruginosa [16], 68.4%; in experiment [17], 0%. For the same compound, the inhibition at 4 µg/mL in the experiment on Acinetobacter baumannii [18] is 6.9%; in the experiment on Listeria monocytogenes [19], 47.3%; in [23], 45.6%; with Pseudomonas aeruginosa [24] it was 3.7%. In addition, the inhibition at 80 µg/mL in the experiment on Escherichia coli [15] and in the experiment with Escherichia coli [20] was 0% throughout.
In the case of `CO[C@H]1c2cc(C(C)C)c(O)c(O)c2[C@@]23CCCC(C)(C)[C@@H]2[C@@H]1OC3=O`, the inhibition at 40 µg/mL in the experiment on Escherichia coli [1] is 32.9%; with Escherichia coli [10], 0%. Moreover, the inhibition at 8 µg/mL with Pseudomonas aeruginosa [6] came out at 30.9%; with Listeria monocytogenes [11], 29.8%; in the experiment with Listeria monocytogenes [13] it was 23.8%; in the experiment with Staphylococcus aureus [14] it was 63.3%; in the experiment with Staphylococcus aureus [21] it was 22.9%; in the experiment on Pseudomonas aeruginosa [22], 84.7%. The inhibition at 4 µg/mL was 23.5% with Staphylococcus aureus [8]; 9.4% in the experiment with Staphylococcus aureus [9]; 0% in the experiment with Listeria monocytogenes [12]; 14.7% with Pseudomonas aeruginosa [16]; 16.2% in the experiment with Listeria monocytogenes [19]; 3.1% in the experiment on Pseudomonas aeruginosa [24]. Moreover, the inhibition at 80 µg/mL with Escherichia coli [15] was 27.3%; in the experiment with Escherichia coli [20], 47.4%.
With `CC1(C)C[C@H](O)[C@]23CC[C@@H](O)[C@](C)(CC[C@@H]12)C3`, the results for the inhibition at 40 µg/mL in the experiment with Escherichia coli [1] and with Escherichia coli [10] were 3.2% and 1.6%, respectively. Besides, the inhibition at 8 µg/mL with Pseudomonas aeruginosa [6] was found to be 40%; in the experiment on Listeria monocytogenes [11], 17.8%; in the experiment with Listeria monocytogenes [13] it was 17.8%; in the experiment with Staphylococcus aureus [14] it was 0%; with Staphylococcus aureus [21] it was 0%; with Pseudomonas aeruginosa [22], 40%. Besides, the inhibition at 4 µg/mL in the experiment on Staphylococcus aureus [8] was found to be 0%; in the experiment with Staphylococcus aureus [9] it was 0%; in the experiment on Listeria monocytogenes [12], 8.7%; with Pseudomonas aeruginosa [16] it was 39.8%; with Listeria monocytogenes [19], 8.7%; with Pseudomonas aeruginosa [24], 39.8%. Further, the results for the inhibition at 80 µg/mL with Escherichia coli [15] and with Escherichia coli [20] were 37.5% and 45.4%, respectively.
On to `CC1(C)C[C@@H](O)C[C@](C)(O)/C1=C\C(=O)O`, for which the inhibition at 40 µg/mL with Escherichia coli [1] turned out to be 28.6%; in the experiment on Escherichia coli [10], 14.2%. In addition, the inhibition at 8 µg/mL is 35.7% with Pseudomonas aeruginosa [6]; 33.3% with Listeria monocytogenes [11]; 10.2% in the experiment on Listeria monocytogenes [13]; 31.5% in the experiment on Staphylococcus aureus [14]; 49.3% in the experiment with Staphylococcus aureus [21]; 55.5% in the experiment on Pseudomonas aeruginosa [22]. The inhibition at 4 µg/mL in the experiment on Staphylococcus aureus [8] stood at 12.6%; in the experiment on Staphylococcus aureus [9] it was 44.7%; in the experiment with Listeria monocytogenes [12], 13.1%; in the experiment on Pseudomonas aeruginosa [16] it was 0%; with Listeria monocytogenes [19], 0%; with Pseudomonas aeruginosa [24], 29.2%. For the same compound, the inhibition at 80 µg/mL in the experiment on Escherichia coli [15] came out at 38.6%; in the experiment with Escherichia coli [20], 50.3%.
